System: Mitochondria-located protein genes
Experiment: DNA chip mRNA expression in yeast, mitochondria-located protein genes (Table 2)
Assay type: cell-based, Saccharomyces cerevisiae S288C
Conditions: cells incubated two hours with the chemical substance
In short: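 Untreated cultures served as reference for log-phase S288C yeast given a growth-inhibiting, non-lethal toxicant dose for 2 h at 25° C. in YPD. Gene expression was measured on a whole-genome DNA chip from Cy3/Cy5-labeled cDNA.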

Cl[C@H]1[C@H](Cl)[C@@H](Cl)[C@@H](Cl)[C@H](Cl)[C@H]1Cl [(7), γ-hexachlorocyclohexane]
The level of expressed mRNA in the presence of chemical substance/The level of expressed mRNA in the absence of chemical substance (yeast gene YJR121W): 1.0 | The level of expressed mRNA in the presence of chemical substance/The level of expressed mRNA in the absence of chemical substance (yeast gene YKL003C): 1.4 | The level of expressed mRNA in the presence of chemical substance/The level of expressed mRNA in the absence of chemical substance (yeast gene YKL016C): 1.5 | The level of expressed mRNA in the presence of chemical substance/The level of expressed mRNA in the absence of chemical substance (yeast gene YKL141W): 0.5 | The level of expressed mRNA in the presence of chemical substance/The level of expressed mRNA in the absence of chemical substance (yeast gene YKL142W): 6.9 | The level of expressed mRNA in the presence of chemical substance/The level of expressed mRNA in the absence of chemical substance (yeast gene YKL148C): 0.6 | The level of expressed mRNA in the presence of chemical substance/The level of expressed mRNA in the absence of chemical substance (yeast gene YKL170W): 1.5 | The level of expressed mRNA in the presence of chemical substance/The level of expressed mRNA in the absence of chemical substance (yeast gene YKL194C): 2.1 | The level of expressed mRNA in the presence of chemical substance/The level of expressed mRNA in the absence of chemical substance (yeast gene YKR066C): 0.5 | The level of expressed mRNA in the presence of chemical substance/The level of expressed mRNA in the absence of chemical substance (yeast gene YLL041C): 0.3 | The level of expressed mRNA in the presence of chemical substance/The level of expressed mRNA in the absence of chemical substance (yeast gene YLR038C): 1.0 | The level of expressed mRNA in the presence of chemical substance/The level of expressed mRNA in the absence of chemical substance (yeast gene YLR259C): 1.8 | The level of expressed mRNA in the presence of chemical substance/The level of expressed mRNA in the absence of chemical substance (yeast gene YLR295C): 1.1 | The level of expressed mRNA in the presence of chemical substance/The level of expressed mRNA in the absence of chemical substance (yeast gene YLR304C): 0.6 | The level of expressed mRNA in the presence of chemical substance/The level of expressed mRNA in the absence of chemical substance (yeast gene YLR348C): 0.9 | The level of expressed mRNA in the presence of chemical substance/The level of expressed mRNA in the absence of chemical substance (yeast gene YML054C): 1.2 | The level of expressed mRNA in the presence of chemical substance/The level of expressed mRNA in the absence of chemical substance (yeast gene YML120C): 0.8 | The level of expressed mRNA in the presence of chemical substance/The level of expressed mRNA in the absence of chemical substance (yeast gene YML129C): 1.8 | The level of expressed mRNA in the presence of chemical substance/The level of expressed mRNA in the absence of chemical substance (yeast gene YMR023C): 1.9 | The level of expressed mRNA in the presence of chemical substance/The level of expressed mRNA in the absence of chemical substance (yeast gene YMR035W): 2.3 | The level of expressed mRNA in the presence of chemical substance/The level of expressed mRNA in the absence of chemical substance (yeast gene YMR083W): 1.7 | The level of expressed mRNA in the presence of chemical substance/The level of expressed mRNA in the absence of chemical substance (yeast gene YMR089C): 1.2 | The level of expressed mRNA in the presence of chemical substance/The level of expressed mRNA in the absence of chemical substance (yeast gene YMR152W): 0.8 | The level of expressed mRNA in the presence of chemical substance/The level of expressed mRNA in the absence of chemical substance (yeast gene YMR203W): 0.8 | The level of expressed mRNA in the presence of chemical substance/The level of expressed mRNA in the absence of chemical substance (yeast gene YMR267W): 1.2 | The level of expressed mRNA in the presence of chemical substance/The level of expressed mRNA in the absence of chemical substance (yeast gene YNL055C): 1.2 | The level of expressed mRNA in the presence of chemical substance/The level of expressed mRNA in the absence of chemical substance (yeast gene YNL071W): 1.4 | The level of expressed mRNA in the presence of chemical substance/The level of expressed mRNA in the absence of chemical substance (yeast gene YNL073W): 1.1 | The level of expressed mRNA in the presence of chemical substance/The level of expressed mRNA in the absence of chemical substance (yeast gene YNL104C): 0.6 | The level of expressed mRNA in the presence of chemical substance/The level of expressed mRNA in the absence of chemical substance (yeast gene YNL256W): 0.6 | The level of expressed mRNA in the presence of chemical substance/The level of expressed mRNA in the absence of chemical substance (yeast gene YOL096C): 1.7 | The level of expressed mRNA in the presence of chemical substance/The level of expressed mRNA in the absence of chemical substance (yeast gene YOR020C): 1.7 | The level of expressed mRNA in the presence of chemical substance/The level of expressed mRNA in the absence of chemical substance (yeast gene YOR037W): 2.5 | The level of expressed mRNA in the presence of chemical substance/The level of expressed mRNA in the absence of chemical substance (yeast gene YOR100C): 1.6 | The level of expressed mRNA in the presence of chemical substance/The level of expressed mRNA in the absence of chemical substance (yeast gene YOR130C): 1.3 | The level of expressed mRNA in the presence of chemical substance/The level of expressed mRNA in the absence of chemical substance (yeast gene YOR142W): 1.0 | The level of expressed mRNA in the presence of chemical substance/The level of expressed mRNA in the absence of chemical substance (yeast gene YOR150W): 1.2 | The level of expressed mRNA in the presence of chemical substance/The level of expressed mRNA in the absence of chemical substance (yeast gene YOR176W): 0.5 | The level of expressed mRNA in the presence of chemical substance/The level of expressed mRNA in the absence of chemical substance (yeast gene YOR187W): 1.5 | The level of expressed mRNA in the presence of chemical substance/The level of expressed mRNA in the absence of chemical substance (yeast gene YOR316C): 1.4 | The level of expressed mRNA in the presence of chemical substance/The level of expressed mRNA in the absence of chemical substance (yeast gene YPL040C): 0.8 | The level of expressed mRNA in the presence of chemical substance/The level of expressed mRNA in the absence of chemical substance (yeast gene YPL134C): 1.2 | The level of expressed mRNA in the presence of chemical substance/The level of expressed mRNA in the absence of chemical substance (yeast gene YPL135W): 1.2 | The level of expressed mRNA in the presence of chemical substance/The level of expressed mRNA in the absence of chemical substance (yeast gene YPL215W): 0.7 | The level of expressed mRNA in the presence of chemical substance/The level of expressed mRNA in the absence of chemical substance (yeast gene YPL262W): 1.3 | The level of expressed mRNA in the presence of chemical substance/The level of expressed mRNA in the absence of chemical substance (yeast gene YPR024W): 1.4 | The level of expressed mRNA in the presence of chemical substance/The level of expressed mRNA in the absence of chemical substance (yeast gene YPR037C): 1.2 | The level of expressed mRNA in the presence of chemical substance/The level of expressed mRNA in the absence of chemical substance (yeast gene YPR047W): 1.8 | The level of expressed mRNA in the presence of chemical substance/The level of expressed mRNA in the absence of chemical substance (yeast gene YPR067W): 1.5 | The level of expressed mRNA in the presence of chemical substance/The level of expressed mRNA in the absence of chemical substance (yeast gene YPR134W): 1.5

Reference: patent publication US8192962B2, “Processes for detecting toxic substances” (Daikin Industries, Ltd., priority 2001, dated 2012)
